Where two headings read alike, the source gives them in different places.
Experiments:
[1] = test system: platelet aggregation (PAF); assay: Inhibitory action on PAF-induced rabbit platelet aggregation; type: cell-based; details: Oryctolagus cuniculus, read-out: inhibitory percentage (platelet aggregation); for inhibition at 3 µM: 3 × 10^-6 M; for inhibition at 0.3 µM: 3 × 10^-7 M; for inhibition at 0.03 µM: 3 × 10^-8 M
Procedure: Blood was collected directly from the hearts of male rabbits using a syringe containing, as an anticoagulant, 3.15% citric acid (one part to 9 parts of blood). The blood was subjected to centrifuge at 800 rpm for ten minutes at room temperature to obtain platelet rich plasma (PRP). The remaining blood was further subjected to centrifuge at 3000 rpm for ten minnutes to separate platelet poor plasma (PPP) as the supernatant. PRP was diluted with PPP, and the number of platelets was adjusted to about 500,000/ μl. This PRP(250 μl) was stirred for two minutes at 37° C., and there was added a test sample, and the mixture was stirred for further two minutes, followed by addition of PAF of a given concentration. Platelet aggregation was examined by means of a platelet-agglutometer (manufactured by Rika Denki). Platelet aggregation preventing action of the test sample was determined based on the maximum percent light transmission (maximum percent. agglutination).

PAF-induced hypotension = assay: Inhibitory action on PAF-induced hypotension in rats; type: in vivo, rat (Sprague-Dawley); details: Rattus norvegicus, read-out: Inhibitory Rate (Lowering of Blood Pressure); for inhibition in vivo at 1 mg/kg / inhibition in vivo at 3 mg/kg / inhibition in vivo at 10 mg/kg: oral; for inhibition in vivo at 0.03 mg/kg / inhibition in vivo at 0.01 mg/kg / inhibition in vivo at 0.1 mg/kg: iv
Procedure: Sprague-Dawley male rats, each weighing about 250 g, were subjected to the experiment. The rats were cannulated on the side of femoral artery for measuring the blood pressure, and on the side of femoral vein for administering the drug. The blood pressure was measured through a pressure transducer and recorded. First, PAF (1 μg/kg) was administered intravenously (i.v.) to examine the extent of lowering of blood pressure. Then, the test samples were administered intravenously or orally. […]
The inhibitory action on PAF-induced hypotension (% inhibition) is indicated as the ratio of blood pressure-lowering degree (Δ mmHg) induced by PAF after administration of test samples relative to blood pressure-lowering degree (Δ mmHg) induced by PAF before administration of test samples.

Compound	inhibition at 3 µM [1]	inhibition at 0.3 µM [1]	inhibition at 0.03 µM [1]	inhibition in vivo at 1 mg/kg (PAF-induced hypotension; 1 hr.)	inhibition in vivo at 1 mg/kg (PAF-induced hypotension; 2 hr.)	inhibition in vivo at 1 mg/kg (PAF-induced hypotension; 4 hr.)	inhibition in vivo at 1 mg/kg (PAF-induced hypotension; 6 hr.)	inhibition in vivo at 1 mg/kg (PAF-induced hypotension; 8 hr.)	inhibition in vivo at 3 mg/kg (PAF-induced hypotension; 1 hr.)	inhibition in vivo at 3 mg/kg (PAF-induced hypotension; 2 hr.)	inhibition in vivo at 3 mg/kg (PAF-induced hypotension; 4 hr.)	inhibition in vivo at 3 mg/kg (PAF-induced hypotension; 6 hr.)	inhibition in vivo at 3 mg/kg (PAF-induced hypotension; 8 hr.)	inhibition in vivo at 0.03 mg/kg (PAF-induced hypotension; 1 hr.)	inhibition in vivo at 0.03 mg/kg (PAF-induced hypotension; 2 hr.)	inhibition in vivo at 0.03 mg/kg (PAF-induced hypotension; 4 hr.)	inhibition in vivo at 0.03 mg/kg (PAF-induced hypotension; 6 hr.)	inhibition in vivo at 0.03 mg/kg (PAF-induced hypotension; 8 hr.)	inhibition in vivo at 0.03 mg/kg (PAF-induced hypotension; 5 min, i.v., 5 min.)	also measured
CCC[n+]1cc(Br)cc(C(=O)N(CCOC(=O)NCCCOC(=O)Nc2cccc3ccccc23)c2ccccc2)c1 [Production Example 52, 5-bromo-3-[N-2-[3-(1-naphthylcarbamoyloxy)propyl]carbamoyloxy]ethyl-N-phenyl]carbamoyl-1-propyl pyridinium chloride]	100%	100%	27%	30%	47%	37%	51%	31%	87%	92%	89%	88%	81%							inhibition in vivo at 10 mg/kg (PAF-induced hypotension; 1 hr.): 92%; inhibition in vivo at 10 mg/kg (PAF-induced hypotension; 2 hr.): 95%; inhibition in vivo at 10 mg/kg (PAF-induced hypotension; 4 hr.): 98%; inhibition in vivo at 10 mg/kg (PAF-induced hypotension; 6 hr.): 96%; inhibition in vivo at 10 mg/kg (PAF-induced hypotension; 8 hr.): 95%
CCC[n+]1cc(Br)cc(C(=O)N(CCOC(=O)NCCOC(=O)N2CCc3ccccc3C2)c2ccccc2)c1 [Production Example 77, 5-Bromo-3-[N-[2-[[2-(1,2,3,4-tetrahydroisoquinolyl)carbonyloxy]ethyl]carbamoyloxy]ethyl-N-phenyl]carbamoyl-1-propylpyridinium chloride]	100%	100%	51%	56%	64%	72%	66%	59%	89%	100%	99%	99%	97%	100%	97%	62%	46%	33%	100%	
CCC[n+]1cc(Cl)cc(C(=O)N(CCC(=O)NCCOC(=O)N2CCc3ccccc3C2)c2ccccc2)c1 [Production Example 88, 5-Chloro-3-[N-[2-[[2-(1,2,3,4-tetrahydroisoquinolyl)carbonyloxy]ethyl]carbamoyl]ethyl-N-phenyl]carbamoyl-1-propylpyridinium chloride]	100%	100%	33%	70%	75%	73%	61%	58%	93%	95%	98%	83%	85%							inhibition in vivo at 0.01 mg/kg (PAF-induced hypotension; 1 hr.): 59%; inhibition in vivo at 0.01 mg/kg (PAF-induced hypotension; 2 hr.): 55%; inhibition in vivo at 0.01 mg/kg (PAF-induced hypotension; 4 hr.): 40%; inhibition in vivo at 0.01 mg/kg (PAF-induced hypotension; 6 hr.): 25%; inhibition in vivo at 0.01 mg/kg (PAF-induced hypotension; 8 hr.): 19%; inhibition in vivo at 0.01 mg/kg (PAF-induced hypotension; 5 min, i.v., 5 min.): 95%
CCC[n+]1cc(Br)cc(C(=O)N(CCOC(=O)NCCOC(=O)Nc2cccc3ccccc23)c2cccc(OC)c2)c1 [Production Example 94, 5-Bromo-3-[N-(3-methoxyphenyl)-N-[2-[2-(1-naphthylcarbamoyloxy)ethyl]carbamoyloxy]ethyl]carbamoyl-1-propylpyridinium chloride]	100%	99%	10%	27%	34%	50%	50%	40%	67%	89%	93%	97%	90%	94%	86%	70%	63%	52%	100%	
CCC[n+]1cc(Br)cc(C(=O)N(CCC(=O)NCCNS(=O)(=O)c2ccc3ccccc3c2)c2ccccc2)c1 [Production Example 98, 5-Bromo-3-[N-[2-[2-(2-naphthylsulfonamidoethyl]carbamoyl]ethyl-N-phenyl]carbamoyl-1-propylpyridinium chloride]	100%	100%	16%	70%	74%	74%	70%	69%	87%	91%	93%	93%	89%							
CCC[n+]1cc(Br)cc(C(=O)N(CCC(=O)NCCNC(=O)c2cccc3ccccc23)c2ccccc2)c1 [Production Example 108, 5-Bromo-3-[N-[2-[2-(1-naphthoylamino)ethyl]carbamoyl]ethyl-N-phenyl]carbamoyl-1-propylpyridinium chloride]	100%	37%	5%	64%	61%	55%	51%	42%	92%	86%	94%	94%	72%							inhibition in vivo at 0.1 mg/kg (PAF-induced hypotension; 1 hr.): 100%; inhibition in vivo at 0.1 mg/kg (PAF-induced hypotension; 2 hr.): 97%; inhibition in vivo at 0.1 mg/kg (PAF-induced hypotension; 4 hr.): 75%; inhibition in vivo at 0.1 mg/kg (PAF-induced hypotension; 6 hr.): 58%; inhibition in vivo at 0.1 mg/kg (PAF-induced hypotension; 8 hr.): 45%; inhibition in vivo at 0.1 mg/kg (PAF-induced hypotension; 5 min, i.v., 5 min.): 100%

From patent publication US4962113A, “Pyridinium derivatives, their production and use” (Takeda Chemical Industries, Ltd, priority 1987, dated 1990)
